The values below come from US9289462B2, “Method for medical treatment utilizing glutathione” (priority 2008, dated 2016).

Molecules are shown by their SMILES. Like-named read-outs stand apart in the source and are kept apart here.

Data set [1] concerns patients with acute pancreatitis. The note with it: previous studies, cited from earlier work; for benefit in patients with acute pancreatitis: administration of n-acetylcysteine together with the antioxidants selenium and vitamin C.
The conditions of data set [2]: known value; cited from earlier work.
Data set [3] has as its system patient with acute pancreatitis, abdominal pain. The experiment in a line: Example 2: pain score of a patient with acute pancreatitis after a single dose of intravenous reduced L-glutathione. The data set is classed as in vivo, human.
Excerpt: (§3) The patient improved substantially over a several week period on nonspecific supportive therapy but continued to require pain medication intermittently.
In data set [4] the test system is amylase, lipase and C-reactive protein levels. The note with it: Example 3; for CRP: Normal 0-7.48; for Lipase: Normal 8-57; for Amylase: Normal 30-110. The text has this: (§1) A person had experienced 5 weeks of increasing back and abdominal pain prior to first dose of intravenous L-glutathione. […] The patient elected to undergo intravenous L-glutathione reduced therapy for pancreatitis.

The subject of data set [5] is patient with back and abdominal pain, pancreatitis. The note with it: for Pain Score: GSH (1 gm).
Excerpt: as §1

The test system of data set [6] is amylase and lipase levels. The settings on record: Example 2; for Lipase: Normal 8-57; for Amylase: Normal 30-110.
Excerpt: as §3
Data set [7] concerns amylase and lipase levels. The settings on record: Example 1; for Lipase: Normal 8-57; for Amylase: Normal 30-110. From the text: (§2) A patient who has experienced over 5 years of constant abdominal pain secondary to chronic pancreatitis is given intravenous reduced L-glutathione therapy.
Data set [8] deals with patient with constant abdominal pain secondary to chronic pancreatitis. The note with it: for Pain Score: GSH (1 gm) IV.
Excerpt: as §2

[9] abbreviates: Jun. 3, 2008 (date of first GSH dose).
Where [10] appears, read: May 22, 2008 (before first GSH dose of Jun. 3, 2008).
Setting [11] is: May 30, 2008 (before first GSH dose).
Setting [12] is: May 7, 2008 (date of GSH infusion).
Where [13] appears, read: Sep. 14, 2007 (before first GSH infusion of Sep. 28, 2007).
[14] abbreviates: Sep. 28, 2007 (date of first GSH infusion).

As for `CC(=O)N[C@@H](CS)C(=O)O` [n-acetylcysteine, reference compound], the “benefit in patients with acute pancreatitis” value (shortened to “benefit in patients”) in data set [1] is given as “failed to show any benefit”.

As for `CC(C)OC(=O)CNC(=O)[C@H](CS)NC(=O)CC[C@H](N)C(=O)O` [glutathione isopropyl ester], the “toxicity LD 50 value” in data set [2] is “about 5.3 g/kg”.

As to `COc1ccc2c3c1O[C@H]1C(=O)CC[C@H]4[C@@H](C2)N(C)CC[C@]314` [hydrocodone, reference compound], the pain in data set [3] (Example 2, May 7, 2008, pain described as 10/10, relieved with hydrocodone taken at home, before GSH) is recorded as 5 /10.

On to `NC(CCC(=O)NC(CS)C(=O)NCC(=O)O)C(=O)O` (stereo not shown) [GSH, 2-amino-4-[[1-(carboxymethylcarbamoyl)-2-sulfanyl-ethyl]carbamoyl]butanoic acid], for which the “Pain Score” value in data set [3] (Example 2, person, GSH (1 gm) IV, May 7, 2008, pain medication hydrocodone) was 5 of 10; in data set [3] (Example 2, May 9, 2008, follow up visit only, no infusion given, pain medication None), 0 of 10; in data set [5] (Example 3, person, Jun. 3, 2008, pain medication hydrocodone) it was 5 of 10; in data set [5] (Example 3, Jun. 4, 2008, pain medication hydrocodone), 0 of 10; in data set [5] (Example 3, Jun. 5, 2008, pain medication hydrocodone), 2.5 of 10; in data set [5] (Example 3, Jun. 6, 2008, pain medication hydrocodone), 4.5 of 10. For the same compound, the “Pain Score” value in data set [5] (Example 3, Jun. 9, 2008, pain medication hydrocodone) was 3 of 10; in data set [5] (Example 3, Jun. 16, 2008, pain medication None), 0 of 10; in data set [5] (Example 3, Jun. 18, 2008, pain medication None), 0 of 10; in data set [5] (Example 3, Jun. 25, 2008, Back pain due to lifting furniture) it was 2 of 10; in data set [8] (Example 1, person, Sep. 28, 2007, pain medication hydrocodone), 8 of 10; in data set [8] (Example 1, Dec. 10, 2007, pain medication propoxyphene), 1 of 10. The “Pain Score” value in data set [8] (Example 1, Dec. 17, 2007, pain medication None) is reported as 0 of 10; in data set [8] (Example 1, Jan. 3, 2008, pain medication None), 0 of 10; in data set [8] (Example 1, Nov. 12, 2007, pain medication propoxyphene) it was 1 of 10; in data set [8] (Example 1, Oct. 10, 2007, pain medication propoxyphene), 5 of 10; in data set [8] (Example 1, Oct. 29, 2007, pain medication propoxyphene), 2 of 10. In addition, the “pain and enzyme levels” value in data set [3] (Example 2, single dose of intravenous reduced L-glutathione) is “responded to a single dose”. Besides, the “effect on multiple organ functions in patients with acute pancreatitis” value in data set [1] (administration of glutathione) was “protective effect”. Besides, the CRP in data set [4] (setting [9]) was 7.84; in data set [4] (Jun. 5, 2008), 9.11; in data set [4] (Jun. 25, 2008), 3.97. Moreover, the Lipase in data set [4] (setting [9]) is on record as 112; in data set [4] (Jun. 5, 2008) it was 152; in data set [4] (Jun. 16, 2008) it was 89; in data set [4] (Jun. 25, 2008), 60; in data set [4] (setting [10]), 150; in data set [4] (setting [11]) it was 150. The Lipase was 161 in data set [6] (setting [12]); 132 in data set [6] (May 9, 2008); 30 in data set [7] (Jun. 27, 2008); 39 in data set [7] (Nov. 5, 2007); 108 in data set [7] (setting [13]); 64 in data set [7] (setting [14]). Moreover, the Amylase is 95 in data set [4] (setting [9]); 128 in data set [4] (Jun. 5, 2008); 75 in data set [4] (Jun. 16, 2008); 64 in data set [4] (Jun. 25, 2008); 105 in data set [4] (setting [10]); 124 in data set [4] (setting [11]). Further, the Amylase in data set [6] (setting [12]) is reported as 115; in data set [6] (May 9, 2008), 105; in data set [7] (Jun. 27, 2008), 68; in data set [7] (Nov. 5, 2007), 62; in data set [7] (setting [13]), 90; in data set [7] (setting [14]) it was 79. In addition, the “amylase, lipase and C-reactive protein levels” value in data set [4] (within a month of intravenous L-glutathione reduced therapy) is “reduction”. In addition, the pain result in data set [5] (Example 3, within a month of intravenous L-glutathione reduced therapy) is recorded as “significant decrease in pain”. Also, the “amylase and lipase levels” value in data set [7] (during the course of treatment) is on record as “significantly reduced”. For the same compound, the “Pain reported by the patient” value in data set [8] (Example 1, within four months of initiating reduced L-glutathione therapy) is reported as “absence of pain”.

In the case of `[Se]` [selenium], the “benefit in patients” value in data set [1] is on record as “failed to show any benefit”.

`O=C1O[C@H]([C@@H](O)CO)C(O)=C1O` [vitamin C, reference compound]: in data set [1], the “benefit in patients” value is given as “failed to show any benefit”.
